Read-outs that look alike come from different tables or passages of the source. One block for each compound: values may come before it.
Columns and labels:
Assay in all cases: biochemical
Parameters in all cases: DiscoveRx KINOMEscan active site-directed competition binding; percent of control kinase bound to immobilised ligand
[1] = molecular target: T1, ICK (Homo sapiens, UniProt Q9UPZ9)
T1 construct: gene CILK1
T1 sequence (Q9UPZ9 1-632): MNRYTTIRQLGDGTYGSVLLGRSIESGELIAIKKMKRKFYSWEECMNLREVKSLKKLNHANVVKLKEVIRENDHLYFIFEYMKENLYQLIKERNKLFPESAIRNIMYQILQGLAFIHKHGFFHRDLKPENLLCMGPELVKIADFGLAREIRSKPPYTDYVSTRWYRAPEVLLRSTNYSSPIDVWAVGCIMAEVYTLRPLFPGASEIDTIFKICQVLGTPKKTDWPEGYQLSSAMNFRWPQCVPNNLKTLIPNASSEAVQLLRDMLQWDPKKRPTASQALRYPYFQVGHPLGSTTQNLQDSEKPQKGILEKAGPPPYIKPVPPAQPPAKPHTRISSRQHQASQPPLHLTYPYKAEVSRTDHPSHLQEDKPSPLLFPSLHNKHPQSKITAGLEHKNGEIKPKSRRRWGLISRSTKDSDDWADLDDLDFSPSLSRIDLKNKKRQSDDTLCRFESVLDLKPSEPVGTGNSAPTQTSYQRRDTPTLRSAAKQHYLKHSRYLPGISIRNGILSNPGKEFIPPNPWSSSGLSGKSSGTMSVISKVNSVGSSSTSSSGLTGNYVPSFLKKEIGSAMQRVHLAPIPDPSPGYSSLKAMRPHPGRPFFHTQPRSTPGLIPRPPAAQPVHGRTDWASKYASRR

[2] = molecular target: T2, IRAK3 (Homo sapiens, UniProt Q9Y616)
T2 sequence (Q9Y616 1-596): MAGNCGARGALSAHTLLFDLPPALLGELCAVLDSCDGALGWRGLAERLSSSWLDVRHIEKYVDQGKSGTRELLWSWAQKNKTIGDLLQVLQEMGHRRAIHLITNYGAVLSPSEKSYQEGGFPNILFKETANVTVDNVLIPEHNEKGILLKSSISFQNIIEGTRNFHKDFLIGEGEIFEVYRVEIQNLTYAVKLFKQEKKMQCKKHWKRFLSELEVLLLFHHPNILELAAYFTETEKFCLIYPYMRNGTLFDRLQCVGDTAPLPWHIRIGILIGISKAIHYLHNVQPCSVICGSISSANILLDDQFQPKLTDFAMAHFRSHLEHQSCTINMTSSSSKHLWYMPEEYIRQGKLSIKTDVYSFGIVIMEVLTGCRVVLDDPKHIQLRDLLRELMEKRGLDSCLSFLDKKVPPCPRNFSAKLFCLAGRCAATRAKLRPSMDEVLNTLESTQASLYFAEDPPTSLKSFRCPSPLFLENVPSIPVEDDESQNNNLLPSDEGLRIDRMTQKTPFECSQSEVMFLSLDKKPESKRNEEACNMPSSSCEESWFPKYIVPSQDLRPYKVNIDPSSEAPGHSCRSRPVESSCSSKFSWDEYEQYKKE

[3] = molecular target: T3, MLK2 (Homo sapiens, UniProt Q02779)
T3 construct: gene MAP3K10

[4] = molecular target: T4, RPS6KA4(Kin.Dom.1-N-terminal) (Homo sapiens, UniProt O75676)
T4 construct: Kin.Dom.1-N-terminal

[5] = molecular target: T5, SNRK (Homo sapiens, UniProt Q9NRH2)
T5 sequence (Q9NRH2 1-765): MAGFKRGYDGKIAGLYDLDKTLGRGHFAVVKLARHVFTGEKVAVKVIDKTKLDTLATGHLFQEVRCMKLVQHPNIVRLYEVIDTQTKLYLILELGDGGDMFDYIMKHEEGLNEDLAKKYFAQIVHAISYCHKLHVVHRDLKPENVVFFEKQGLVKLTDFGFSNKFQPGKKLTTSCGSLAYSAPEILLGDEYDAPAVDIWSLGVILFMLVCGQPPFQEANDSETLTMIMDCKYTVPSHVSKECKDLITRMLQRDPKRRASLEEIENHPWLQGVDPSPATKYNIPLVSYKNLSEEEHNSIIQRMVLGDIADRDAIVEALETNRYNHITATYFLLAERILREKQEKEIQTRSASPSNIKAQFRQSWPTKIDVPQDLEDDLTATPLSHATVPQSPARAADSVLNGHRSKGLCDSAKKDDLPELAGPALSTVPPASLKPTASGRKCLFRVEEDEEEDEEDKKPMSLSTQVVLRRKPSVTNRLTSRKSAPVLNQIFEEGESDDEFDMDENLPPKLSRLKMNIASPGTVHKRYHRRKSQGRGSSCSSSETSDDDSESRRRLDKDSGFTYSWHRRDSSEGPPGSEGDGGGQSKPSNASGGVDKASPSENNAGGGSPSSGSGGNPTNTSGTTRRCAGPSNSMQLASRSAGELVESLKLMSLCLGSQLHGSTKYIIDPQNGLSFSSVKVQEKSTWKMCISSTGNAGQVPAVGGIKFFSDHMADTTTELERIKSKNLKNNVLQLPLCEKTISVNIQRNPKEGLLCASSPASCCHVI

[6] = molecular target: WNK4 (Homo sapiens, UniProt Q96J92)
[7] = read-out: Olaparib / %Ctrl @ 10000nM
[8] = read-out: Talazoparib (BMN 673) / %Ctrl @ 10000nM
[9] = read-out: Rucaparib / %Ctrl @ 10000nM, binding competition, % of control
[10] = read-out: Niraparib (MK-4827) / %Ctrl @ 10000nM

T4 sequence (O75676 whole entry): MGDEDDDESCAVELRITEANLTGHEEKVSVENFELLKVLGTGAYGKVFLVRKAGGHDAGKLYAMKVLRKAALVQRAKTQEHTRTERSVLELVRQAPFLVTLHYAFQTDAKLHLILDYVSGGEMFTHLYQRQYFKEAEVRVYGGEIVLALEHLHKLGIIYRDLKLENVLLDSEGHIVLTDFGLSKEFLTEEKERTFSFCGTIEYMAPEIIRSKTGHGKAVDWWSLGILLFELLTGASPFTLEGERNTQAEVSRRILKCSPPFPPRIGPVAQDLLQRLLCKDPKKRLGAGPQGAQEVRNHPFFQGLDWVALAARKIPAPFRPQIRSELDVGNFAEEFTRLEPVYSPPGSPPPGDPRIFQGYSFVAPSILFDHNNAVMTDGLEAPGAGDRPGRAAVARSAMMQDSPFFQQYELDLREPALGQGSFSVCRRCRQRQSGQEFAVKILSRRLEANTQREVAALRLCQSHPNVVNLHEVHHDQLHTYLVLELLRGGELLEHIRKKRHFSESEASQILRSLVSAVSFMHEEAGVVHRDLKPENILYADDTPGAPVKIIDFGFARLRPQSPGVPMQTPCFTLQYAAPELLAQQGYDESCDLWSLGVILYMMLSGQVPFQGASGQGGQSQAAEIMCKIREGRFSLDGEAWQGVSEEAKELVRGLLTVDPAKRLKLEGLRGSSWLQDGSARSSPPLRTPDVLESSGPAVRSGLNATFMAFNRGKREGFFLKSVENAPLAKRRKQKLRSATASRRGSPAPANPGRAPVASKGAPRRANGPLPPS
T3 sequence (Q02779 whole entry): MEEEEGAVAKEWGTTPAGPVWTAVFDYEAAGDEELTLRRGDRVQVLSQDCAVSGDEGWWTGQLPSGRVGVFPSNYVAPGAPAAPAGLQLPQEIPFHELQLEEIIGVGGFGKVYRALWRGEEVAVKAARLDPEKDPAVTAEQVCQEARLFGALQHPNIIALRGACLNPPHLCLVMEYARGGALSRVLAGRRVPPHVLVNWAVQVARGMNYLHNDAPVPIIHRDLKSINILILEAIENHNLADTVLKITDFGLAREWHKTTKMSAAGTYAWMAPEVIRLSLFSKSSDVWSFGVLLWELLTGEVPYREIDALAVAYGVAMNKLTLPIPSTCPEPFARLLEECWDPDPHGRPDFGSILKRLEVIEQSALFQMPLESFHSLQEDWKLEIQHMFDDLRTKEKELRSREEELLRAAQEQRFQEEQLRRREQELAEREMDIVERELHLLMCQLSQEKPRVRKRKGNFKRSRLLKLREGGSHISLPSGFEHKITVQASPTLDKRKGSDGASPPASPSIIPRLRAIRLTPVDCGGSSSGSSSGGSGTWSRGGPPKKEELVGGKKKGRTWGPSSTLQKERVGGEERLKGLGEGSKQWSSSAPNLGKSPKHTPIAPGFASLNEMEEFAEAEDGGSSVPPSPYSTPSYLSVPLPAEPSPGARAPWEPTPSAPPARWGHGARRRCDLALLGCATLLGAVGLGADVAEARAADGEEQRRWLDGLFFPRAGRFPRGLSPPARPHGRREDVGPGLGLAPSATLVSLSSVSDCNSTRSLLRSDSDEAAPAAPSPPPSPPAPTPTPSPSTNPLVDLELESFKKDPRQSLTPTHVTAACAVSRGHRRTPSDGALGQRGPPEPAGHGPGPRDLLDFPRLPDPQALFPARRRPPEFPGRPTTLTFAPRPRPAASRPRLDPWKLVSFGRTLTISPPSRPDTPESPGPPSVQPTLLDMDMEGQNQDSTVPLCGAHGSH
Chain of WNK4 (Q96J92 whole entry): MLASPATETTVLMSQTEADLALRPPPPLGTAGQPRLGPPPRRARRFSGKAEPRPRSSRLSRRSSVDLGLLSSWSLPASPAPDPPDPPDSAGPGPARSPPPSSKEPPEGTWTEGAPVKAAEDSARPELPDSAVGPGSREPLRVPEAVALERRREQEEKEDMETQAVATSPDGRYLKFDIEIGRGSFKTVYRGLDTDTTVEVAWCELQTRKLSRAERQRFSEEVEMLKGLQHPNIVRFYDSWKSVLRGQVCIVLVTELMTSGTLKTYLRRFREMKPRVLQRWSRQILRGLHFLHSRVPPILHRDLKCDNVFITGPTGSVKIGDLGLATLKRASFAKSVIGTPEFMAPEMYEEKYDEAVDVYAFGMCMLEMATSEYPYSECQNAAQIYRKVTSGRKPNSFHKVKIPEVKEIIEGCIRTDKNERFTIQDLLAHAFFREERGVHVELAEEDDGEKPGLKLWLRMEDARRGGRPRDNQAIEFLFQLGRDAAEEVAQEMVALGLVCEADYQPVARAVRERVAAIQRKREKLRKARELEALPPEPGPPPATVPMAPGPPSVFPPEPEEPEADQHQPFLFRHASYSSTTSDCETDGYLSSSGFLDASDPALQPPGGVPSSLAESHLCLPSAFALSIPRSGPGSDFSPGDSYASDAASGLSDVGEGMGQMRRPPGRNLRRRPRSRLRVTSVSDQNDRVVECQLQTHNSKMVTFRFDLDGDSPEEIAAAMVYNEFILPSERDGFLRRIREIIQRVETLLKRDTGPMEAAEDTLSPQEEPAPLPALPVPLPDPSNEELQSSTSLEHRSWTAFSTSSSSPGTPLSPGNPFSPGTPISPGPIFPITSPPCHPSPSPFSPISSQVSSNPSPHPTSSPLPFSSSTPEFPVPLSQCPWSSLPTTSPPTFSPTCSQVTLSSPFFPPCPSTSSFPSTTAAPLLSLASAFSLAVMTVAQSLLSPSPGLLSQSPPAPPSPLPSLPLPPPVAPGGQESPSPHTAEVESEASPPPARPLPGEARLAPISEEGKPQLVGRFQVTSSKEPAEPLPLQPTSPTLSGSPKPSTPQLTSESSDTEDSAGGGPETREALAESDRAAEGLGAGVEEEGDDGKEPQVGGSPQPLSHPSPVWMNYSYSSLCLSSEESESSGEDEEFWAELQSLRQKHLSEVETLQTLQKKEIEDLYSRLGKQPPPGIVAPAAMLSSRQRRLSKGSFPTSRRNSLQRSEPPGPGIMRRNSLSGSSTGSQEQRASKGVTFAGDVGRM

percent of control binding at 10 µM [1, 7]: 92%
percent of control binding at 10 µM [2, 7]: 82%
percent of control binding at 10 µM [3, 7]: 97%
percent of control binding at 10 µM [4, 7]: 100%
percent of control binding at 10 µM [5, 7]: 96%
percent of control binding at 10 µM [6, 7]: 100%
SMILES: O=C(c1cc(Cc2n[nH]c(=O)c3ccccc23)ccc1F)N1CCN(C(=O)C2CC2)CC1 [Olaparib]

percent of control binding at 10 µM [1, 8]: 71%
percent of control binding at 10 µM [2, 8]: 100%
percent of control binding at 10 µM [3, 8]: 70%
percent of control binding at 10 µM [4, 8]: 61%
percent of control binding at 10 µM [5, 8]: 100%
percent of control binding at 10 µM [6, 8]: 100%
SMILES: Cn1ncnc1[C@H]1c2n[nH]c(=O)c3cc(F)cc(c23)N[C@@H]1c1ccc(F)cc1 [Talazoparib]

percent of control binding at 10 µM [1, 9]: 64%
percent of control binding at 10 µM [2, 9]: 86%
percent of control binding at 10 µM [3, 9]: 63%
percent of control binding at 10 µM [4, 9]: 100%
percent of control binding at 10 µM [5, 9]: 80%
percent of control binding at 10 µM [6, 9]: 97%
SMILES: CNCc1ccc(-c2[nH]c3cc(F)cc4c3c2CCNC4=O)cc1 [Rucaparib]

SMILES: NC(=O)c1cccc2cn(-c3ccc([C@@H]4CCCNC4)cc3)nc12 [Niraparib]
percent of control binding at 10 µM [1, 10]: 63%
percent of control binding at 10 µM [2, 10]: 90%
percent of control binding at 10 µM [3, 10]: 69%
percent of control binding at 10 µM [4, 10]: 100%
percent of control binding at 10 µM [5, 10]: 100%
percent of control binding at 10 µM [6, 10]: 100%

— PMC7026418, “The kinase polypharmacology landscape of clinical PARP inhibitors” (Scientific Reports, 2020)
